# In ChEMBL document CHEMBL3991601, “The target landscape of clinical kinase drugs” (Science, 2017):
# Active and inactive are the calls of the source.
# Tests used:
# [1] = biological target: T1, Interleukin-1 receptor-associated kinase 4 (Homo sapiens, UniProt Q9NWZ3)
# T1 sequence (Q9NWZ3 whole entry): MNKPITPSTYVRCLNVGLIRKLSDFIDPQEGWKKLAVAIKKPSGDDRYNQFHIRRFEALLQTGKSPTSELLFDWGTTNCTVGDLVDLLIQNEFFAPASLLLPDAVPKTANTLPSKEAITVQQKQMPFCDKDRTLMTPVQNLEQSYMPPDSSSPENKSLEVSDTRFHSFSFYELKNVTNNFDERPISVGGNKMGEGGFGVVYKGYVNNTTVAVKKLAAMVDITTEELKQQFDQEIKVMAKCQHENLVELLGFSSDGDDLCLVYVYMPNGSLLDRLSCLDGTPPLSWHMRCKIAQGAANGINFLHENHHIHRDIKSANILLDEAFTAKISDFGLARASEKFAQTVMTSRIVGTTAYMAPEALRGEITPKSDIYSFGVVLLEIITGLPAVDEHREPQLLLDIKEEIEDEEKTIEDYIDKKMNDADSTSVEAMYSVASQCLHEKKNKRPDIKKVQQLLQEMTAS
# [2] = biological target: T2, Ferrochelatase, mitochondrial (Homo sapiens, UniProt P22830)
# T2 sequence (P22830 whole entry): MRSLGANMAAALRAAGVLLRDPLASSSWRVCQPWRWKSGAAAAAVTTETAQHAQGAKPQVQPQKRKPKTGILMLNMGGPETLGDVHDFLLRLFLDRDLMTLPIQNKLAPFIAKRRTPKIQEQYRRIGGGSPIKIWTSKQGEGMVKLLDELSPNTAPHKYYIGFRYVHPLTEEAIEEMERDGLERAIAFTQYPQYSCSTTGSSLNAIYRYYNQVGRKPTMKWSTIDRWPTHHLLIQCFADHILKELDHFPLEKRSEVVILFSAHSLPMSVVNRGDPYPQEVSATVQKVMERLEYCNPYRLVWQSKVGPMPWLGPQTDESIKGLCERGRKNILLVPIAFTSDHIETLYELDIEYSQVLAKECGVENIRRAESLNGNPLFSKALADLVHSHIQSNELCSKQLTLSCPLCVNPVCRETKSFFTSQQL
# Adenosine kinase = Adenosine kinase (Homo sapiens, UniProt P55263)
# Aurora kinase B = Aurora kinase B (Homo sapiens, UniProt Q96GD4)
# [3] = biological target: 26S proteasome regulatory subunit 6B (Homo sapiens, UniProt P43686)
# [4] = biological target: T3, Serine/threonine-protein kinase Nek2 (Homo sapiens, UniProt P51955)
# T3 sequence (P51955 whole entry): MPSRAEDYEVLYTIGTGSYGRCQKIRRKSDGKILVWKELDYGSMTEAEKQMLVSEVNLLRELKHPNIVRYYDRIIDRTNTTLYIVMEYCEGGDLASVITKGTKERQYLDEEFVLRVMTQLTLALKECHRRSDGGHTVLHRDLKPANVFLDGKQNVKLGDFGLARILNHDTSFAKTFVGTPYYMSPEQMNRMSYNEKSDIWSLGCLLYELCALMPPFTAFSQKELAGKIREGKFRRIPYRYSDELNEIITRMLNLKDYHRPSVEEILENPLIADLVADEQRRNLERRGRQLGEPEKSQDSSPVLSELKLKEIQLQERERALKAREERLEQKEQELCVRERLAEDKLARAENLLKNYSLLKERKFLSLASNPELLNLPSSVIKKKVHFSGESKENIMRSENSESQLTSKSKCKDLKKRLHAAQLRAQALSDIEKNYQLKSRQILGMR
# Myosin-14 = Myosin-14 (Homo sapiens, UniProt Q7Z406)
# [5] = biological target: T4, Serine/threonine-protein kinase LATS1 (Homo sapiens, UniProt O95835)
# T4 sequence (O95835 whole entry): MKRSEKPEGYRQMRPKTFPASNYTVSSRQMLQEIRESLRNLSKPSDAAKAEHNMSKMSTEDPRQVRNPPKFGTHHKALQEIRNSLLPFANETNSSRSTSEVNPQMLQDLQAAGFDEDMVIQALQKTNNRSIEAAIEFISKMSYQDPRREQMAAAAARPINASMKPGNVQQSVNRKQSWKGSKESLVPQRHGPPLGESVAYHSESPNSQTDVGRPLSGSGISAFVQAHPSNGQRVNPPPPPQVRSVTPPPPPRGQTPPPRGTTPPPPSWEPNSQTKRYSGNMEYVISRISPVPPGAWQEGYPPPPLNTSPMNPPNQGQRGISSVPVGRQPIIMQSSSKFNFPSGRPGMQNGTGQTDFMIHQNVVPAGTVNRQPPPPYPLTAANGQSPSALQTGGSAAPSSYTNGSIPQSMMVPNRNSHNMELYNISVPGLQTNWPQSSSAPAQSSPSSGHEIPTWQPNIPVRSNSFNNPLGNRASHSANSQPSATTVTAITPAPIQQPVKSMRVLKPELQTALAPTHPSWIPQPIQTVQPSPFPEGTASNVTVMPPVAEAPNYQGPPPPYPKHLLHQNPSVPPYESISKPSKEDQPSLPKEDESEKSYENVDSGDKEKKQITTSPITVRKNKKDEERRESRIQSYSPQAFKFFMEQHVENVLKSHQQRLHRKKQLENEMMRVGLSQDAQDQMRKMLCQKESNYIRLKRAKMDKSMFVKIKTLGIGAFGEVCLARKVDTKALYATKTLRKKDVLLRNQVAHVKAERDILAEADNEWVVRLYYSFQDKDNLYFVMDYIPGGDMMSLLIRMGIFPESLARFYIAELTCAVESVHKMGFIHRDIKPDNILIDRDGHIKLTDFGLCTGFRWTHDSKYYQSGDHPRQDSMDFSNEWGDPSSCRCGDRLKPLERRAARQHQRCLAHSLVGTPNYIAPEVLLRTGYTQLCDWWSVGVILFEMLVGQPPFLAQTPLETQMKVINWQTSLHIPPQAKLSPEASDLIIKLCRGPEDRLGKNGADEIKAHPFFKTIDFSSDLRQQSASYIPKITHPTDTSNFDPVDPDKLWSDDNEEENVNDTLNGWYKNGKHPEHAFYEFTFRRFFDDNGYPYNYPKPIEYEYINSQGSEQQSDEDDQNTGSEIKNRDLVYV
# Note: in the data inactive means no Kd found up to 30 µM.
# Sequence of Adenosine kinase (P55263 whole entry): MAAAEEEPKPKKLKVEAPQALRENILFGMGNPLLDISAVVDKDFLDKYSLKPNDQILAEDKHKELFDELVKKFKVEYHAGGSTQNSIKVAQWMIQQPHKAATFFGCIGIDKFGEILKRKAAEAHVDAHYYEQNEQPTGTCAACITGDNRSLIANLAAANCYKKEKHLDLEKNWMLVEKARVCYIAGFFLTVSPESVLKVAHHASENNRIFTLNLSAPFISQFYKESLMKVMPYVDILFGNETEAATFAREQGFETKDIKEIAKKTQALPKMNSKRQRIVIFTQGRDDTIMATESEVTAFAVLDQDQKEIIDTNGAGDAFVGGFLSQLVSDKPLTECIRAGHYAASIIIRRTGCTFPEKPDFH
# Sequence of Aurora kinase B (Q96GD4 whole entry): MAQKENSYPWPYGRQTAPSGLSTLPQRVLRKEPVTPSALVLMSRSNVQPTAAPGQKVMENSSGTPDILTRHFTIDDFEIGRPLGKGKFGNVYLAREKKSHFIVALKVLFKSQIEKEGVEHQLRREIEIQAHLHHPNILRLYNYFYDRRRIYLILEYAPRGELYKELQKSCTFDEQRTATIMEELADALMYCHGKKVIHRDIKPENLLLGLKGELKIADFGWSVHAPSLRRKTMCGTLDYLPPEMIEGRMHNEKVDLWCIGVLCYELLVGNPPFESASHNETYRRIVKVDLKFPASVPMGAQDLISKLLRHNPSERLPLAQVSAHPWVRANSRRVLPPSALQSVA
# Sequence of 26S proteasome regulatory subunit 6B (P43686 whole entry): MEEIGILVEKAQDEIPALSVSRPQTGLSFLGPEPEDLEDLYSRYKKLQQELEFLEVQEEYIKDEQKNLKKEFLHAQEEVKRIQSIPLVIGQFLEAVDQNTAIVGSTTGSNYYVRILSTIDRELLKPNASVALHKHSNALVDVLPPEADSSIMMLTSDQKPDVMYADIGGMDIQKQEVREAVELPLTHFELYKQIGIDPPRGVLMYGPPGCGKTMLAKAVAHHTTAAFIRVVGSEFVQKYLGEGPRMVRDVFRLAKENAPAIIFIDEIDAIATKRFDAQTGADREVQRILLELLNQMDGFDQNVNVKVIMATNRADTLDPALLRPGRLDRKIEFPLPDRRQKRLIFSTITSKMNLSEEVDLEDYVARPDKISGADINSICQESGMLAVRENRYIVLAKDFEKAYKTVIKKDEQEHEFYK
# Sequence of Myosin-14 (Q7Z406 whole entry): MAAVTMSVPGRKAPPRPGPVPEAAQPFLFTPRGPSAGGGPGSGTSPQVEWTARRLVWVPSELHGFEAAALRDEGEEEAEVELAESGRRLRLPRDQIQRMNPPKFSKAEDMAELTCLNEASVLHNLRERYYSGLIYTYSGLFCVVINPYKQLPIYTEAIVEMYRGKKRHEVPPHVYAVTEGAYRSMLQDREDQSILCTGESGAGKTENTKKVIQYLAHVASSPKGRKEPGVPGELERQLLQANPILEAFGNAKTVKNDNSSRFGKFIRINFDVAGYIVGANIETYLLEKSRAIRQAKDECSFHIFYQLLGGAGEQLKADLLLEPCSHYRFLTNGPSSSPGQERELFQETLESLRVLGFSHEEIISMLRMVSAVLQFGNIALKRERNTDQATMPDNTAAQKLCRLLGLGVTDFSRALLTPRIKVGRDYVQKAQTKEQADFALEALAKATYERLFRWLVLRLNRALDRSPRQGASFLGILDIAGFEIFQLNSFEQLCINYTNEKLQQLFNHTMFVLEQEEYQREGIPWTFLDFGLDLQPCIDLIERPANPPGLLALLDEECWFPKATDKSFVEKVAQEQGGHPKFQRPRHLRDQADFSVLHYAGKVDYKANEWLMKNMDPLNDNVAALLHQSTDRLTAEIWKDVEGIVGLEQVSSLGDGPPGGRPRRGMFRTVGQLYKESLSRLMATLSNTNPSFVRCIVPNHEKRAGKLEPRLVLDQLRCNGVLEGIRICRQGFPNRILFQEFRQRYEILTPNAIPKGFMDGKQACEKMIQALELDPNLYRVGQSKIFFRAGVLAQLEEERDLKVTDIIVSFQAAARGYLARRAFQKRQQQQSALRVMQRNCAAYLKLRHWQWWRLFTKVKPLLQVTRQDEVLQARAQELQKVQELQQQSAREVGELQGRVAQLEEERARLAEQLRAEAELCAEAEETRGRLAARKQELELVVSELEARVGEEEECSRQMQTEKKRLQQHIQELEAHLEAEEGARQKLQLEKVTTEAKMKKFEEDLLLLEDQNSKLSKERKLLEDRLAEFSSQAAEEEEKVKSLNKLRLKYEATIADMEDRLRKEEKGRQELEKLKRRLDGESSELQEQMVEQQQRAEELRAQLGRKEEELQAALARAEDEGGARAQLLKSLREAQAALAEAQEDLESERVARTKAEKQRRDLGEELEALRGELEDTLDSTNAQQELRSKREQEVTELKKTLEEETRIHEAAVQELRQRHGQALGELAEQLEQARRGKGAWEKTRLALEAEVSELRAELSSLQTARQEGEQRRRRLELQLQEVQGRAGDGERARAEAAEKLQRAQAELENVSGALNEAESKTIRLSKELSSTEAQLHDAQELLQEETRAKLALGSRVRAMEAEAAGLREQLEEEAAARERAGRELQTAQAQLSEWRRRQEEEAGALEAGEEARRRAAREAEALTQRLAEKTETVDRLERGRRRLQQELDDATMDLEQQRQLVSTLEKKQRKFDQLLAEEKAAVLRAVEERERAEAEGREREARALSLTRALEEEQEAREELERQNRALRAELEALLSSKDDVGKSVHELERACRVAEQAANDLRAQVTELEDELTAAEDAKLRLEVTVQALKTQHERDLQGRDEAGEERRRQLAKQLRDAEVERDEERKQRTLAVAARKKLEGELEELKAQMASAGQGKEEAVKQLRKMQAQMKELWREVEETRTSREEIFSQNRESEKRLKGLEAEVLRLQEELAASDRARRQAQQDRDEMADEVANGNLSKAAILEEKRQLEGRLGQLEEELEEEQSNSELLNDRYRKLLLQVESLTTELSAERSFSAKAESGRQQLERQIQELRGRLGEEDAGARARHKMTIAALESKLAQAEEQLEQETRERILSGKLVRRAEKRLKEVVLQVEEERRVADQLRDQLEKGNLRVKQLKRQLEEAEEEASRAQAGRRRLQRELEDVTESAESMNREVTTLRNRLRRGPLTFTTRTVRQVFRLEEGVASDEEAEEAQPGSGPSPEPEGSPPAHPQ
Structure (SMILES),Kd [1],Kd [2],Kd (Adenosine kinase),Kd (Aurora kinase B),Kd [3],Kd [4],Kd (Myosin-14),Kd [5]
Cn1c(=O)c(F)c(Nc2ccc(I)cc2F)c2c(=O)n(C[C@@H](O)CO)cnc21 [TAK-733],> 30 µM (inactive),> 30 µM (inactive),> 30 µM (inactive),> 30 µM (inactive),> 30 µM (inactive),> 30 µM (inactive),> 30 µM (inactive),> 30 µM (inactive)
COc1cc2ncnc3c2cc1OCCCCCN(C)Cc1ccc(Br)cc1N3 [JNJ-26483327],> 30 µM (inactive),3.97 µM,> 30 µM (inactive),> 30 µM (inactive),> 30 µM (inactive),> 30 µM (inactive),> 30 µM (inactive),> 30 µM (inactive)
COc1cc2ncnc(Nc3ccc(F)c(Cl)c3)c2cc1NC(=O)/C=C/CN1CCCCC1 [DACOMITINIB ANHYDROUS],> 30 µM (inactive),> 30 µM (inactive),> 30 µM (inactive),> 30 µM (inactive),> 30 µM (inactive),> 30 µM (inactive),> 30 µM (inactive),> 30 µM (inactive)
C#Cc1cccc(Nc2ncnc3cc4c(cc23)OCCOCCOCCO4)c1 [ICOTINIB],> 30 µM (inactive),> 30 µM (inactive),> 30 µM (inactive),> 30 µM (inactive),> 30 µM (inactive),> 30 µM (inactive),> 30 µM (inactive),> 30 µM (inactive)
Cc1cc(C(=O)Nc2cc(Oc3ccc4nc(NC(=O)C5CC5)cn4n3)ccc2C)n(C)n1 [TAK-593],> 30 µM (inactive),> 30 µM (inactive),–,> 30 µM (inactive),> 30 µM (inactive),> 30 µM (inactive),> 30 µM (inactive),> 30 µM (inactive)
COc1cc2ncnc(Nc3ccc(O)cc3)c2cc1OC [WHI-P131],34.1 µM (active),> 30 µM (inactive),> 30 µM (inactive),> 30 µM (inactive),> 30 µM (inactive),> 30 µM (inactive),> 30 µM (inactive),> 30 µM (inactive)
S=C(NCc1ccc2c(c1)OCO2)N1CCN(c2ncnc3c2oc2ccccc23)CC1 [AMUVATINIB],> 30 µM (inactive),> 30 µM (inactive),> 30 µM (inactive),> 30 µM (inactive),> 30 µM (inactive),> 30 µM (inactive),> 30 µM (inactive),> 30 µM (inactive)
CN1CCN(c2nc(C3=C(c4c[nH]c5ccccc45)C(=O)NC3=O)c3ccccc3n2)CC1 [SOTRASTAURIN],> 30 µM (inactive),> 30 µM (inactive),> 30 µM (inactive),> 30 µM (inactive),> 30 µM (inactive),> 30 µM (inactive),> 30 µM (inactive),> 30 µM (inactive)
CNC(=O)c1cc(COc2nnc(Nc3ccc(Cl)cc3)c3ccoc23)ccn1 [TELATINIB],> 30 µM (inactive),> 30 µM (inactive),> 30 µM (inactive),> 30 µM (inactive),> 30 µM (inactive),> 30 µM (inactive),–,> 30 µM (inactive)
COc1cc(F)c(F)c(Nc2ccc(I)cc2F)c1NS(=O)(=O)C1(C[C@H](O)CO)CC1 [REFAMETINIB],> 30 µM (inactive),> 30 µM (inactive),> 30 µM (inactive),> 30 µM (inactive),> 30 µM (inactive),> 30 µM (inactive),> 30 µM (inactive),> 30 µM (inactive)
COc1cccc2cc(-c3nc([C@H]4CC[C@H](C(=O)O)CC4)n4ncnc(N)c34)[nH]c12 [OSI-027],> 30 µM (inactive),12.6 µM (active),> 30 µM (inactive),> 30 µM (inactive),> 30 µM (inactive),> 30 µM (inactive),> 30 µM (inactive),> 30 µM (inactive)
CNC(=O)c1ccc(Nc2ncc(C(F)(F)F)c(NCc3nccnc3N(C)S(C)(=O)=O)n2)cc1 [DEFACTINIB],> 30 µM (inactive),> 30 µM (inactive),–,1.46 µM (active),> 30 µM (inactive),> 30 µM (inactive),> 30 µM (inactive),9.05 µM (active)
Cc1ccc(C(=O)Nc2ccc(Oc3cc4cnn(C)c4cc3-c3cn[nH]c3)c(F)c2)c(=O)n1-c1ccc(F)cc1 [MERESTINIB],> 30 µM (inactive),> 30 µM (inactive),> 30 µM (inactive),> 30 µM (inactive),> 30 µM (inactive),> 30 µM (inactive),> 30 µM (inactive),> 30 µM (inactive)
CC(C)(O)CC(=O)NCCn1ccc2ncnc(Nc3ccc(Oc4cccc(C(F)(F)F)c4)c(Cl)c3)c21 [TAK-285],> 30 µM (inactive),> 30 µM (inactive),> 30 µM (inactive),> 30 µM (inactive),> 30 µM (inactive),> 30 µM (inactive),> 30 µM (inactive),> 30 µM (inactive)
COCCN1CCN(Cc2ccc(-c3n[nH]c4c3C(=O)c3c(NC(=O)NN5CCOCC5)cccc3-4)cc2)CC1 [RGB-286638],> 30 µM (inactive),> 30 µM (inactive),> 30 µM (inactive),> 30 µM (inactive),> 30 µM (inactive),> 30 µM (inactive),–,> 30 µM (inactive)
C=CCN(/C=C1/C(=O)O[C@H](COC)[C@@]2(C)C1=C(O)C(=O)C1=C2[C@H](OC(C)=O)C[C@]2(C)C(=O)CC[C@@H]12)CC=C [SONOLISIB],> 30 µM (inactive),> 30 µM (inactive),> 30 µM (inactive),> 30 µM (inactive),> 30 µM (inactive),> 30 µM (inactive),–,> 30 µM (inactive)
FC(F)(F)c1ccc(CNc2ccc(Cc3c[nH]c4ncc(Cl)cc34)cn2)cn1 [PEXIDARTINIB],> 30 µM (inactive),> 30 µM (inactive),> 30 µM (inactive),> 30 µM (inactive),> 30 µM (inactive),> 30 µM (inactive),–,> 30 µM (inactive)
